The record followed here is patent publication US6177592A, “Compounds” (priority 1997, dated 2001).

The subject of experiment [1] is IMC. Description: IMC/CDF1 mice macrobiotic effect. It is filed as in vivo.
Experiment [2] deals with Bacillus subtilis IFO 3021. Description: Antibacterial activity, viable cell numbers. It is filed as cell-based. As for the experimental part:
Bacillus subtilis IFO 3021 was incubated (by mans of a seed culture) overnight in a sensitive bouillon medium (manufactured by Nissui). Absorbance at 600 nm was measured and viable cell numbers were calculated from the previously-prepared calibration curve showing the relation between the viable cell numbers and absorbance at 600 nm. The seed-cultured liquid was diluted with a fresh sensitive bouillon medium to make the concentration 1×10^6 cells/ml and each 180 μl thereof was placed in each well of the 96-well microtiter plate. Each 20 μl of aqueous solution of GM (4 mg/ml or 2 mg/ml) or water was added to each well followed by allowing to a stationary culture at 37° C. for one night (main incubation) In the meanwhile, a part of the seed culture liquid was diluted with sterilized water, spread onto a sensitive bouillon agar plate medium and incubated at 37° C. for one night and the colonies were counted to measure the precise viable cell numbers.
The cultured liquid in each of the wells was diluted with sterilized water, spread onto a sensitive bouillon agar plate medium and incubated at 37° C. for one night and the colonies were counter to measure the viable cell numbers.

Experiment [3] is described as follows: Blood sugar, insulin and lipid in KK-Ay mice. The class given is in vivo, mouse (KK-A^y). The procedure:
KK-A^y Mice (male; four weeks age) were purchased from Clea Japan and, after breeding at our end until ten weeks age, GM was orally administered for 21 days and its influence on sugar, insulin and lipid in blood was investigated. Doses of GM were 30, 100 and 300 mg/kg.
Incidentally, the animals were grouped into four (each group consisting of ten animals) and the four groups were administered with physiological saline solution (5 ml/kg) or 30, 100 or 300 mg/5 ml/kg of GM. Each test substance was orally administered once daily for 21 days and, on the final day of administration, the animals were anesthetized with ether after four hours from the administration of the test substance and blood was collected from artery of lower abdomen. Insulin in serum was measured by an enzyme-immunoassay (commercially available kit: Glazym Insulin-EIATEST,manufactured by Wako Pure Chemicals). Sugar, triglycerides and free fatty acids in serum were measured using an automatic analyzer (type 7070, manufactured by Hitachi) by a hexonase-G6PDH method, a GPO.cndot.DAOS method and an ACS.cndot.ACOD method, respectively. Total cholesterol in serum was measured using an automatic analyzer (type 7070, manufactured by Hitachi) by a cholesterol-oxidase, DAOS method.

The test system of experiment [4] is heat shock protein of 70 kDa (HSP70). Nature of the experiment: Induction of heat shock protein of 70 kDa in HL-60. It is filed as cell-based, human. Set-up: key to Induction of Heat Shock Protein: -: no induction was noted; ±: the induction was slight; indicates degree of intensity of induction and the more the numbers of "+", the more the intensity of induction; ++: the more the numbers of "+", the more the intensity of induction; +++: the more the numbers of "+", the more the intensity of induction. The following applies: for action of inducing the heat shock protein (in words): Example 14, compared with GM and CM. As for the experimental part: (1) An RPMI 1640 medium (5 ml) containing 10% of fetal bovine serum which contained 2×10^5 cells/ml of HL-60 (ATCC CCL-24C) was placed in each well of a six-well plate, incubated at 37° C. for 24 hours in the presence of 5% of CO2, then GM was added thereto to make its final concentration 0, 0.5, 1.0, 3.0, 5.0, 10.0 or 20.0 μM and the incubation was further continued for eight hours more.
After completion of the incubation, cell numbers were counted and the cells were recovered by centrifugation and washed with PBS to prepare GM-treated cells. In the meanwhile, cells which were heated at 45° C. for ten minutes followed by subjecting to the same incubation were prepared as well.
The cells treated as such were subjected to an SDS-PAGE by a method mentioned in "Molecular Cloning" [Cold Spring Harbor Laboratory Press, (1989)]. The treated cells were suspended in an SDS-PAGE sample buffer to make the concentration 2.5×10^6 cells/ml, the resulting cell suspension was treated at 100° C. for ten minutes and each 5 μl thereof was applied to two sheets of SDS-PAGE gels (5% stacking gel; 10% separation gel) to conduct an electrophoresis. One of the gels was stained with Coomassie Brilliant Blue R250 while another gel was subjected to a blotting to a polyvinylidene difluoride transfer membrane (Immobilon™, manufactured by Millipore, catalog no. IPVH000-10). The membrane was subjected to a blocking at 4° C. for one night with Block Ace (manufactured by Dainippon Pharmaceutical; catalog no. UK-B25).
The blocked membrane was made to react with monoclonal antibody HSP 72/73 (Ab-1) (manufactured by Oncogene Research Products, catalog no. HSP01) which specifically reacted with heat-induced heat shock protein of 70 kDa and washed with TBS containing 0.05% of Tween 20 followed by further washing with TBS. After that, it was made to react with peroxidase-compounded secondary antibody HRP-Rabbit Anti-Mouse IgG (H+L) (manufactured by Zymed Laboratories, catalog no. 61-6520) and washed by the same manner as in the above operation. The membranes which were treated with primary and secondary antibodies as such were made to react with Renaissance™ (a chemiluiminor reagent manufactured by Dupont NEN, catalog no. NEL-100) and photosensitized with an X-ray film to detect the induction of heat shock protein of 70 kDa.
(2) CM was added to the incubated cells to make its final concentration 0, 10, 20, 30, 40 or 50 μM and expression of HSP70 was measured by the method as mentioned in Example 14-(1).

Setting [5] is: 30, 100, 300 mg/kg oral, 21 days.

As to `N[C@@H](CCC(=O)N[C@@H](CSC1C=C(O)C(=O)C1)C(=O)NCC(=O)O)C(=O)O` (some centres unmarked) [GM, 2-hydroxy-4-glutathion-S-yl-2-cyclopenten-1-one], in experiment [1], the macrobiotic effect result is listed as “same macrobiotic effect”. In experiment [2] (400 μg/ml final, one night at 37° C., water 1.3×10^8), the viable cell numbers is listed as 4.4×10^7 cells/ml. Further, in experiment [3] (setting [5]), the blood sugar entry is given as “decreased in each of the groups administered with GM”. Besides, in experiment [3] (setting [5]), the “free fatty acids in serum” value is recorded as “decreased”. The insulin in serum result in experiment [3] (setting [5]) is listed as “decreased in each of the groups administered with GM”. The “total cholesterol in serum” value in experiment [3] (setting [5]) was “de creased”. Besides, in experiment [3] (Example 13, summary), the “effect of lowering blood sugar, insulin and lipid” value is “effect of lowering blood sugar, insulin and lipid”. The “Induction of Heat Shock Protein” value in experiment [4] (0.5 μM GM, eight hours) is reported as “±”; in experiment [4] (1.0 μM GM, eight hours), “±”; in experiment [4] (3.0 μM GM, eight hours), “+”; in experiment [4] (5.0 μM GM, eight hours), “+”; in experiment [4] (10 μM GM, eight hours), “++”; in experiment [4] (20 μM GM, eight hours), “++”. In experiment [4], the “action of inducing the heat shock protein (in words)” value is on record as “action of inducing the heat shock protein”.
With `N[C@@H](CSC1C=C(O)C(=O)C1)C(=O)O` (some centres unmarked) [CM], the macrobiotic effect result in experiment [1] is listed as “same macrobiotic effect”. Also, the “antibacterial activity (in words)” value in experiment [2] (compared with GM) is on record as “same results”. Further, the triglycerides in serum entry in experiment [3] (setting [5]) is “decreased”. Also, the “Induction of Heat Shock Protein” value in experiment [4] (10 μM CM) is “+”; in experiment [4] (20 μM CM) it was “++”; in experiment [4] (30 μM CM) it was “++”; in experiment [4] (40 μM CM), “+”; in experiment [4] (50 μM CM), “+”. For the same molecule, the “action of inducing the heat shock protein (in words)” value in experiment [4] was “action of inducing the heat shock protein”.
